Assay results reported in article PMC11292009, “Mapping protein binding sites by photoreactive fragment pharmacophores” (Communications Chemistry, 2024).
Values joined by “and” are separate entries in the source; they are usually repeats but may differ in a detail not shown here. Equal entries are not always repeated.

What was measured:
Assay type in all cases: binding
lysozyme (Lyo) = assay: Intact protein MS photoaffinity labeling screen, lysozyme; conditions: intact protein MS after 10 min irradiation
How it was run: (§1)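 Fragments tested one per well, each incubated 15 min with protein to form non-covalent complexes before photo-crosslinking. Labeling read directly by intact protein MS as mass additions matching fragment adducts, expressed as labeling %.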

myoglobin (Myo) = assay: Intact protein MS photoaffinity labeling screen, myoglobin; conditions: intact protein MS after 10 min irradiation
How it was run: as §1

[1] = system: CA, Lyo, Myo, BRD4-BD1, KRas G12D, STAT5B-NTD; assay: Intact MS labeling compared over all protein targets; conditions: for Labeling of the other protein targets (vs. preferred target): each of the other targets
Method: Using a plate-based format with one fragment per well, each fragment was incubated with the target proteins for 15 min to allow for the formation of non-covalent interactions. The plate was then irradiated at 302 or 365 nm for 10 min to enable the bound fragments to crosslink to the protein[26]. Finally, the results were directly analyzed from the plate using intact protein mass spectrometry by observing the mass additions that correspond to successful labeling (Fig. 2c, for labeling % values see Supplementary data). The library was first characterized against three benchmark proteins like carbonic anhydrase (CA), lysozyme (Lyo), and myoglobin (Myo).
The PhP library was screened against BRD4-BD1 and KRas^G12D as follows. Using a Labcyte Echo® 555 Liquid Handler, 150 nL of fragment solution (20 mM) was transferred into a Greiner 384 low-volume plate (white) to prepare the probe plate. The probe plate was placed on ice. 15 μL of protein stock solution (1 μM BRD4-BD1 (GSK/GenScript) or KRas^G12D (GSK/GenScript) in PBS buffer) was dispensed into wells containing fragments. The plate was left on ice for 15 min for incubation, then irradiated at 302 nm for 10 min, and centrifuged (1000 rpm, 1 min) to remove any bubbles. The plate was then analyzed by LCMS-TOF mass spectrometry (Agilent 1200 series liquid chromatography with Agilent Bio-HPLC PLRP-S (1000 Å, 5 µm × 50 mm × 1.0 mm, PL1312-1502) reverse phase HPLC column at 70 °C equipped with an Agilent G6224 time-of-flight (ToF), see Supplementary Note 2 for the full protocols). The deconvoluted spectra were analyzed using R Studio software.
During the analysis, the column temperature was maintained at a constant 60 °C, and a sample volume of 3 µL was injected for each analysis. Data acquisition was conducted in positive ion mode within the m/z 100–2000 (mass-to-charge ratio) range. For the full protocol and spectra of the hits, see Supplementary Note 2.

STAT5B-NTD [2] = system: T1, STAT5B-NTD; assay: Intact MS labeling screen, STAT5B-NTD conjugated with photocatalyst Ir-G2-PEG3-COOH (450 nm); conditions: 450 nm 10 min;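 also: 0.14 µL of 100 mM DMSO fragment stock added to the conjugate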
T1 construct: His-SUMO (N, cleaved yes); made in house; host or cells: E. coli BL21 RILP
How it was run: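 Ir-G2-PEG3-COOH photocatalyst (10 eq) activated 30 min with EDC/NHS/BOP, then conjugated to STAT5B-NTD (7 µM) overnight at RT or 1 h at 37 °C in dark. PhP added, 1 h dark, then 450 nm irradiation 10 min at 4 °C; labeling read by intact LC-MS, positive ion mode, m/z 100–2000.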

[3] = system: carbonic anhydrase II (CA); assay: Intact protein MS photoaffinity labeling screen, carbonic anhydrase; conditions: intact protein MS after 10 min irradiation
How it was run: as §1

STAT5B-NTD [4] = system: T1, STAT5B-NTD; assay: Intact MS photoaffinity labeling screen, STAT5B-NTD (365 nm, UHPLC-MS); conditions: for MS labeling percentage, STAT5B: STAT5B-NTD, 365 nm 10 min, no photocatalyst;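 as to MS labeling percentage, STAT5B: 0.17 µL of 100 mM DMSO fragment stock added to the protein sample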
How it was run: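 UV irradiation at 365 nm for 10 min at 4 °C. Labeling read by intact-protein UHPLC-MS, positive ion mode, m/z 100–2000.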

KRas^G12D = system: T2, KRas^G12D; assay: Intact MS photoaffinity labeling screen, KRas G12D (302 nm, LCMS-TOF); conditions: for MS labeling percentage, KRas: KRas G12D, 302 nm 10 min
T2 construct: purchased GSK/GenScript
How it was run: (§2)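 Labeling detected as mass additions in deconvoluted intact-protein LCMS-TOF spectra. Protein at 1 μM in PBS was first mixed with one fragment per well on ice for 15 min, followed by 10 min UV exposure at 302 nm.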

BRD4-BD1 = system: T3, BRD4-BD1; assay: Intact MS photoaffinity labeling screen, BRD4-BD1 (302 nm, LCMS-TOF); conditions: for MS labeling percentage, BRD4: BRD4-BD1, 302 nm 10 min
T3 construct: screened the PhP library against the first bromodomain of BRD4 (BRD4-BD1); purchased GSK/GenScript
How it was run: as §2

[5] = hit flag 1/0, sheet PhP, photoaffinity labeling screen
[6] = sheet PhP, experimental hit status flag given as 0 or 1
[7] = PhP library sheet "PhP", binary flag printed as 0 or 1, key not given
[8] = hit status flag, 1 = hit, 0 = no hit

Row | Structure (SMILES) | MS labeling percentage, Lyo (lysozyme (Lyo)) [%] | MS labeling percentage, Myo (myoglobin (Myo)) [%] | Labeling of the other protein targets (vs. preferred target) [1] | MS labeling percentage, STAT5B+photocat (STAT5B-NTD [2]) [%] | MS labeling percentage, CA [3] [%] | MS labeling percentage, STAT5B (STAT5B-NTD [4]) [%] | MS labeling percentage, KRas (KRas^G12D) [%] | MS labeling percentage, BRD4 (BRD4-BD1) [%] | STAT5B-NTD (experimental hit status) (STAT5B-NTD [4]; [7]) | KRAS-G12D (experimental hit status) (KRas^G12D; [7]) | BRD4-BD1 (experimental hit status) (BRD4-BD1; [7]) | other results
1 | CC1(CCC(=O)NCc2cc3ccccc3[nH]2)N=N1 [PhP040, N1=NC1(C)CCC(=O)NCc(c2)[nH]c(c23)cccc3] | 0.3 | 0.5 | > 3% and < 3% | 74 | 0.7 | 75 | 1.9 | 2.1 | – | – | – | STAT5B-NTD (experimental hit status) (STAT5B-NTD [4]; [5]): 0; KRAS-G12D (experimental hit status) (KRas^G12D; [5]): 0; BRD4-BD1 (experimental hit status) (BRD4-BD1; [5]): 0
2 | CCN(CCCNC(=O)CCC1(C)N=N1)c1ccccc1 [PhP048, c1ccccc1N(CC)CCCNC(=O)CCC2(C)N=N2] | 2.1 | 0 | > 3% and < 3% | 3.2 | 0 | 2.9 | 29.4 | 0.4 | – | – | – | STAT5B-NTD (experimental hit status) (STAT5B-NTD [4]; [5]): 0; KRAS-G12D (experimental hit status) (KRas^G12D; [5]): 0; BRD4-BD1 (experimental hit status) (BRD4-BD1; [5]): 0
3 | CC1(CCC(=O)NCc2nc3ncccc3[nH]2)N=N1 [PhP053, N1=NC1(C)CCC(=O)NCc(n2)[nH]c(c23)cccn3] | 0 | 0.6 | > 2% and < 2% | 1 | 1.2 | 0 | 2 | 6.7 | – | – | – | STAT5B-NTD (experimental hit status) (STAT5B-NTD [4]; [5]): 0; KRAS-G12D (experimental hit status) (KRas^G12D; [5]): 0; BRD4-BD1 (experimental hit status) (BRD4-BD1; [5]): 1
4 | Cc1c[nH]c(=O)n1-c1cccc(CNC(=O)CCC2(C)N=N2)c1 [PhP077, Cc1c[nH]c(=O)n1-c2cccc(c2)CNC(=O)CCC3(C)N=N3] | 0 | 0.2 | > 3% and < 3% | 11.5 | 0.1 | 20 | 0.7 | – | – | – | – | STAT5B-NTD (experimental hit status) (STAT5B-NTD [4]; [6]): 0; KRAS-G12D (experimental hit status) (KRas^G12D; [6]): 0; BRD4-BD1 (experimental hit status) (BRD4-BD1; [6]): 0
5 | Cc1noc(C)c1-c1ccc(CNC(=O)CCC2(C)N=N2)cc1 [PhP080, Cc1noc(C)c1-c2ccc(cc2)CNC(=O)CCC3(C)N=N3] | 7.7 | 3 | – | 21.1 | 3 | 1 | 3.2 | – | 0 | 0 | 0 | Labeling efficiency over all protein targets (mean ± spread) [1]: 3.6 ± 2.2%
6 | CCCc1nn(C)c(C(N)=O)c1NC(=O)CCC1(C)N=N1 [PhP082, CCCc1nn(C)c(C(=O)N)c1NC(=O)CCC2(C)N=N2] | 0 | 52.9 | > 0.5% and < 0.5% | 2.4 | 0 | 0 | 0 | 0.2 | 0 | 0 | 0 | –
7 | COc1ccc(NS(=O)(=O)c2cccc(NC(=O)CCC3(C)N=N3)c2)cc1 [PhP087, COc1ccc(cc1)NS(=O)(=O)c2cccc(c2)NC(=O)CCC3(C)N=N3] | 1.5 | 3.2 | – | 8 | 18.9 | 2.9 | 12.6 | 0.7 | 0 | 0 | 0 | Number of targets labeled in higher than 10% amount ([1]; of the six protein targets): two
8 | CC1(CCC(=O)NCc2ccc(-c3ccc(O)cc3)cc2)N=N1 [PhP088, N1=NC1(C)CCC(=O)NCc2ccc(cc2)-c3ccc(O)cc3] | 4.8 | 0.2 | > 1% and < 1% | 5.7 | 0 | 0 | 0.2 | 0.5 | 0 | 0 | 0 | –
9 | Cc1nc(CCNC(=O)CCC2(C)N=N2)sc1C [PhP092, Cc1nc(sc1C)CCNC(=O)CCC2(C)N=N2] | 35.6 | 0.1 | > 1% and < 1% | 0.8 | 0.3 | 0 | 0.1 | 0.5 | 0 | 0 | 0 | –
10 | COc1ccc(-c2cnc(CNC(=O)CCC3(C)N=N3)[nH]2)cc1 [PhP098, COc1ccc(cc1)-c2cnc([nH]2)CNC(=O)CCC3(C)N=N3] | 0.5 | 2.3 | – | 3.1 | 1.6 | 1.4 | 9.6 | 4.3 | – | – | – | Labeling efficiency over all protein targets (mean ± spread) [1]: 3.3 ± 3.1%; STAT5B-NTD (experimental hit status) (STAT5B-NTD [4]; [8]): 0; KRAS-G12D (experimental hit status) (KRas^G12D; [8]): 0; BRD4-BD1 (experimental hit status) (BRD4-BD1; [8]): 0
11 | CC1(CCC(=O)NCc2ccc(CNC(=O)OC(C)(C)C)cc2)N=N1 [PhP099, CC(C)(C)OC(=O)NCc1ccc(cc1)CNC(=O)CCC2(C)N=N2] | 2.2 | 4.3 | – | 19.3 | 12.8 | 2.9 | 7.7 | 1.1 | – | – | – | Labeling efficiency over all protein targets (mean ± spread) [1]: 5.2 ± 4%; STAT5B-NTD (experimental hit status) (STAT5B-NTD [4]; [8]): 0; KRAS-G12D (experimental hit status) (KRas^G12D; [8]): 0; BRD4-BD1 (experimental hit status) (BRD4-BD1; [8]): 0
